Test results from EP0224249A1, “Amorphous benzimidazole derivatives” (SYNTEX (U.S.A.) INC., priority 1985, dated 1987).

How the values were obtained:
Trichostrongylus spp. [1] = assay: Anthelmintic efficacy in naturally infected goats, necropsy on day 6 post-treatment; type: in vivo; settings: necropsy day 6 post-treatment
Method: (§1) (A) Fifteen (15) goats, preferably from a single source, known to be infected with nematode parasites as evidenced by positive fecal egg counts are used. The animals would be preferably of one sex. They will have been to be contaminated with goat parasite eggs and larvae, particularly Ostertagia spp. (hereinafter "Ost") and Trichostrongylus spp. (hereinafter "Tri") • 1. - Control • 2. - 9 mg amorphous oxfendazole/kg • 3. - 15 mg oxfendazole/kg Animals are then subjected to necropsy on day 6 post-treatment. Gastrointestinal tract, lungs, and liver are examined using standard parasitological techniques for nematode and trematode parasites.

Ostertagia spp. [2] = assay: as above; type: in vivo; settings: necropsy day 6 post-treatment
Method: as §1

[3] = Blood plasma levels after oral administration to dogs; type: in vivo; settings: 10 mg/kg; for Area Under the Curve / Area Under the Curve, mean (n = 6): plasma concentration vs time, 18720 min
Method: Dogs were administered orally either amorphous or crystalline oxfendazole at a dose of 10 mg/kg.
Blood samples were drawn and analyzed before administration and on days 1, 2, 3, 7, 10, and 13 following administration. The area under the curve was calculated for plasma concentration vs time profile.

Trichostrongylus spp. [4] = assay: Anthelmintic efficacy in sheep carrying oxfendazole-resistant nematodes; type: in vivo
Method: (§2) Animals are then subjected to necropsy on day 6 post-treatment. Gastrointestinal tract, lungs, and liver are examined using standard parasitological techniques for nematode and trematode parasites.
(§3) (B) Sheep carrying nematodes with varying degrees of resistance to oxfendazole were treated with either levamisole, oxfendazole, or amorphous oxfendazole in accordance with the above procedure.
(§4) • Ost = Ostertagia spp. • Tri = Trichostrongylus spp. • Nem = Nematodirus spp. • Oes = Oesophagostomum spp. • Tr.o = Trichuris ovis

Trichuris ovis = assay: as above; type: in vivo
Method: as §2, §3, §4

Ostertagia spp. [5] = assay: as above; type: in vivo
Method: as §2, §3, §4

Oesophagostomum spp. = assay: as above; type: in vivo
Method: as §2, §3, §4

Nematodirus spp. = assay: as above; type: in vivo
Method: as §2, §3, §4

nematode parasites = assay: Overall comparison of the goat and sheep efficacy studies; type: in vivo; settings: goat and sheep studies together
Description: (A) Fifteen (15) goats, preferably from a single source, known to be infected with nematode parasites as evidenced by positive fecal egg counts are used. The animals would be preferably of one sex. They will have been to be contaminated with goat parasite eggs and larvae, particularly Ostertagia spp. (hereinafter "Ost") and Trichostrongylus spp. (hereinafter "Tri")
as §2, §3

[6] = administered to humans; cited from earlier work
Dissolution rate at pH 2 = type: physicochemical
Description: The dissolution rate of amorphous fenbendazole versus crystalline fenbendazole at pH 2 was studied as a model for showing the bioavailability of the amorphous compound.

COC(=O)Nc1nc2ccc([S+]([O-])c3ccccc3)cc2[nH]1 (stereo not drawn) [oxfendazole, methyl 5-(phenylsulfinyl)-lH-benzimidazol-2-yl carbamate]
Percent Efficacy Tri (Trichostrongylus spp. [1]; 15 mg/kg): 80% | Percent Efficacy Ost (Ostertagia spp. [2]; 15 mg/kg): 77% | Area Under the Curve ([3]; Dog No. A, listed as Crystalline Ox.): 2700.0 ng/ml hr | Area Under the Curve ([3]; Dog No. B, listed as Crystalline Ox.): 2622.0 ng/ml hr | Area Under the Curve ([3]; Dog No. C, listed as Crystalline Ox.): 2130.0 ng/ml hr | Area Under the Curve ([3]; Dog No. D, listed as Crystalline Ox.): 3341.0 ng/ml hr | Area Under the Curve ([3]; Dog No. E, listed as Crystalline Ox.): 3107.5 ng/ml hr | Area Under the Curve ([3]; Dog No. F, listed as Crystalline Ox.): 4149.5 ng/ml hr | Area Under the Curve, mean (n = 6) ([3]; dogs, listed as Crystalline Ox.): 3008.4 ng/ml hr | Percent Efficacy Tri (Trichostrongylus spp. [4]; 5 mg/kg): 100% | Percent Efficacy Tri (Trichostrongylus spp. [4]; 10 mg/kg): 99.7% | Percent Efficacy Tr. o (Trichuris ovis; 5 mg/kg): 38% | Percent Efficacy Tr. o (Trichuris ovis; 10 mg/kg): 62% | Percent Efficacy Ost (Ostertagia spp. [5]; 5 mg/kg): 0% | Percent Efficacy Ost (Ostertagia spp. [5]; 10 mg/kg): 28% | Percent Efficacy Oes (Oesophagostomum spp.; 5 mg/kg): 100% | Percent Efficacy Oes (Oesophagostomum spp.; 10 mg/kg): 100% | Percent Efficacy Nem (Nematodirus spp.; 5 mg/kg): 22% | Percent Efficacy Nem (Nematodirus spp.; 10 mg/kg): 80%

COC(=O)Nc1nc2ccc([S+]([O-])c3ccccc3)cc2[nH]1 (stereo not drawn) [amorphous oxfendazole, methyl 5-(phenylsulfinyl)-lH-benzimidazol-2-yl carbamate]
Percent Efficacy Tri (Trichostrongylus spp. [1]; 9 mg/kg): 98% | Percent Efficacy Ost (Ostertagia spp. [2]; 9 mg/kg): 70% | Area Under the Curve ([3]; Dog No. A): 20465.0 ng/ml hr | Area Under the Curve ([3]; Dog No. B): 9717.5 ng/ml hr | Area Under the Curve ([3]; Dog No. C): 11592.5 ng/ml hr | Area Under the Curve ([3]; Dog No. D): 24245.0 ng/ml hr | Area Under the Curve ([3]; Dog No. E): 12653.8 ng/ml hr | Area Under the Curve ([3]; Dog No. F): 25475.0 ng/ml hr | plasma level of oxfendazole compared with oxfendazole in commercially available form ([3]; dogs): higher plasma level of oxfendazole | Area Under the Curve, mean (n = 6) ([3]; dogs): 17358.1 ng/ml hr | dose for approximately equivalent efficacy, relative to that required for oxfendazole (nematode parasites): about 60% | Percent Efficacy Tri (Trichostrongylus spp. [4]; 3 mg/kg): 100% | Percent Efficacy Tri (Trichostrongylus spp. [4]; 6 mg/kg): 100% | Percent Efficacy Tr. o (Trichuris ovis; 3 mg/kg): 9.5% | Percent Efficacy Tr. o (Trichuris ovis; 6 mg/kg): 69% | Percent Efficacy Ost (Ostertagia spp. [5]; 3 mg/kg): 55% | Percent Efficacy Ost (Ostertagia spp. [5]; 6 mg/kg): 22% | Percent Efficacy Oes (Oesophagostomum spp.; 3 mg/kg): 100% | Percent Efficacy Oes (Oesophagostomum spp.; 6 mg/kg): 100% | Percent Efficacy Nem (Nematodirus spp.; 3 mg/kg): 57% | Percent Efficacy Nem (Nematodirus spp.; 6 mg/kg): 82%

COC(=O)Nc1nc2ccc(C(=O)c3ccccc3)cc2[nH]1 [crystalline mebendazole, methyl 5-benzoyl-lH-benzimidazol-2-yl carbamate]
absorbed [6]: 3-4%

c1ccc([C@H]2CN3CCSC3=N2)cc1 [Levamisole]
Percent Efficacy Tri (Trichostrongylus spp. [4]; 8 mg/kg): 49% | Percent Efficacy Tr. o (Trichuris ovis; 8 mg/kg): 37% | Percent Efficacy Ost (Ostertagia spp. [5]; 8 mg/kg): 98% | Percent Efficacy Oes (Oesophagostomum spp.; 8 mg/kg): 100% | Percent Efficacy Nem (Nematodirus spp.; 8 mg/kg): 100%

COC(=O)Nc1nc2ccc(Sc3ccccc3)cc2[nH]1 [amorphous fenbendazole, methyl 5-(phenylthio)-lH-benzimidazol-2-yl carbamate]
% Dissolved (Dissolution rate at pH 2; pH 2, 5 min): 73% | % Dissolved (Dissolution rate at pH 2; pH 2, 15 min): 91% | % Dissolved (Dissolution rate at pH 2; pH 2, 30 min): 125% | % Dissolved (Dissolution rate at pH 2; pH 2, 60 min): 130% | % Dissolved (Dissolution rate at pH 2; pH 2, 90 min): 112% | solubility compared with crystalline fenbendazole (Dissolution rate at pH 2; pH 2, over time): more soluble than crystalline fenbendazole and remains more soluble over time

COC(=O)Nc1nc2cc(Sc3ccccc3)ccc2[nH]1 [crystalline fenbendazole, methyl 5-(phenylthio)-lH-benzimidazol-2-yl carbamate]
% Dissolved (Dissolution rate at pH 2; pH 2, 5 min): 21% | % Dissolved (Dissolution rate at pH 2; pH 2, 15 min): 22% | % Dissolved (Dissolution rate at pH 2; pH 2, 30 min): 46% | % Dissolved (Dissolution rate at pH 2; pH 2, 60 min): 41% | % Dissolved (Dissolution rate at pH 2; pH 2, 90 min): 25%
